Test results as given in the NIST ThermoML archive (doi:10.1021/je050328d).
Values joined by “and” are separate entries in the source; they are usually repeats but may differ in a detail not shown here. Identical values can stand only once. ± gives the expanded uncertainty stated by the source.

Conditions: meniscus disappearance in a closed cell

SMILES: CC(C)C [2-methylpropane]
- mass density (390.4 K, Liquid): 388.9 ± 1.2 kg/m3
- mass density (391.4 K, Gas): 90.6 ± 1.2 kg/m3
- mass density (393.73 K, Gas): 98.2 ± 1.2 kg/m3
- mass density (394.98 K, Gas): 101.1 ± 1.2 kg/m3
- mass density (397.49 K, Liquid): 358.7 ± 1.2 kg/m3
- mass density (398.81 K, Gas): 114.2 ± 1.2 kg/m3
- mass density (400.69 K, Liquid): 341.9 ± 1.2 kg/m3
- mass density (402.34 K, Liquid): 330.3 ± 1.2 kg/m3
- mass density (404.54 K, Gas): 142 ± 1.2 kg/m3
- mass density (405.22 K, Liquid): 308.1 ± 1.2 kg/m3
- mass density (406.17 K, Gas): 160.4 ± 1.2 kg/m3
- mass density (406.71 K, Liquid): 289.4 ± 1.3 kg/m3
- mass density (406.96 K, Liquid): 284.3 ± 1.3 kg/m3
- mass density (407.03 K, Gas): 173.9 ± 1.3 kg/m3
- mass density (407.21 K, Gas): 179.1 ± 1.3 kg/m3
- mass density (407.52 K, Liquid): 271 ± 1.5 kg/m3
- mass density (407.65 K, Gas): 192.9 ± 2.2 kg/m3
- mass density (407.75 K, Liquid): 244.3 ± 6.9 kg/m3
- mass density (407.76 K, Gas): 202.3 ± 4.2 kg/m3
- mass density (407.79 K, Gas): 219.3 ± 11 kg/m3 and 225.4 ± 14 kg/m3
- mass density (407.8 K, Liquid): 229.4 ± 6.9 kg/m3
